Measurements: patent US6025467A, “Parathyroid hormone derivatives and their use” (Takeda Chemical Industries, Ltd., priority 1995, dated 2000)
Non-standard residues stand in square brackets, D forms with d. Residues, ends and D or L forms follow the SMILES beside them. No end group written: not given here. 2Nal = N[C@@H](Cc1ccc2ccccc2c1)C(=O)O; Aib = CC(C)(N)C(=O)O

Assays:
[1] = tested on: Sprangue Dawley rats; assay: Increase in femur bone weight in rats after subcutaneous dosing; type: in vivo, rat; settings: dried right femur weight compared with vehicle group
Method: To four-week-old male Sprangue Dawley rats, the compounds synthesized in Example 1 […], and increases in the bone weight in their femurs were compared with that of a group to which a vehicle (0.15M NaCl, 0.001N hydrochloric acid and 2% heat-inactivated rat serum) was given. After administration, their right femurs were taken out, and the tissues around them were removed. Then, the femurs were dried at 100° C. for 3 hours and weighed.

[2] = biological target: PTH receptor (mouse, UniProt P41593); assay: cell-based or functional assay
[3] = 4.9 nmol/kg a day subcutaneously for two weeks, four-week-old male rats

cAMP increase (pmol/well) [2] | Molecule | bone increase [1, 3] | also measured
– | CC[C@H](C)[C@H](NC(=O)[C@H](CCC(=O)O)NC(=O)[C@H](CO)NC(=O)[C@@H](NC(=O)[C@@H](N)CO)C(C)C)C(=O)N[C@@H](CCC(N)=O)C(=O)N[C@@H](CC(C)C)C(=O)N[C@@H](CCSC)C(=O)N[C@@H](Cc1c[nH]cn1)C(=O)N[C@@H](CC(=O)O)C(=O)N[C@@H](CCCCN)C(=O)NCC(=O)N[C@@H](CCCCN)C(=O)N[C@@H](Cc1c[nH]cn1)C(=O)N[C@@H](CC(C)C)C(=O)N[C@@H](CC(N)=O)C(=O)N[C@@H](CO)C(=O)N[C@@H](CCSC)C(=O)N[C@@H](CCC(=O)O)C(=O)N[C@@H](CCCNC(=N)N)C(=O)N[C@H](C(=O)N[C@@H](CCC(=O)O)C(=O)N[C@@H](Cc1c[nH]c2ccccc12)C(=O)N[C@@H](CC(C)C)C(=O)N[C@@H](CCCNC(=N)N)C(=O)N[C@@H](CCCCN)C(=O)N[C@@H](CCCCN)C(=O)N[C@@H](CC(C)C)C(=O)N[C@@H](CCC(N)=O)C(=O)N[C@@H](CC(=O)O)C(=O)N[C@H](C(=O)N[C@@H](Cc1c[nH]cn1)C(=O)N[C@@H](CC(N)=O)C(=O)N[C@@H](Cc1ccccc1)C(=O)O)C(C)C)C(C)C [(1), [Asp^10, Lys^11] hPTH(1-34)] (H-SVSEIQLMHDKGKHLNSMERVEWLRKKLQDVHNF-OH) | – | bone increase ([1]; 4.9 nmol/kg a day subcutaneously, continuously administered for 4 weeks): 66.6 mg
– | CC[C@H](C)[C@H](NC(=O)[C@H](CCC(=O)O)NC(=O)[C@H](CO)NC(=O)[C@@H](NC(=O)[C@@H](N)CO)C(C)C)C(=O)N[C@@H](CCC(N)=O)C(=O)N[C@@H](CC(C)C)C(=O)N[C@@H](CCSC)C(=O)N[C@@H](Cc1c[nH]cn1)C(=O)N[C@@H](CCC(=O)O)C(=O)N[C@@H](Cc1ccccc1)C(=O)N[C@H](C)C(=O)N[C@@H](CCCCN)C(=O)N[C@@H](Cc1c[nH]cn1)C(=O)N[C@@H](CC(C)C)C(=O)N[C@@H](CC(N)=O)C(=O)N[C@@H](CO)C(=O)N[C@@H](CCSC)C(=O)N[C@@H](CCC(=O)O)C(=O)N[C@@H](CCCNC(=N)N)C(=O)N[C@H](C(=O)N[C@@H](CCC(=O)O)C(=O)N[C@@H](Cc1c[nH]c2ccccc12)C(=O)N[C@@H](CC(C)C)C(=O)N[C@@H](CCCNC(=N)N)C(=O)N[C@@H](CCCCN)C(=O)N[C@@H](CCCCN)C(=O)N[C@@H](CC(C)C)C(=O)N[C@@H](CCC(N)=O)C(=O)N[C@@H](CC(=O)O)C(=O)N[C@H](C(=O)N[C@@H](Cc1c[nH]cn1)C(=O)N[C@@H](CC(N)=O)C(=O)N[C@@H](Cc1ccccc1)C(=O)O)C(C)C)C(C)C [(10), [Glu^10, Phe^11, D-Ala^12] hPTH(1-34)] (H-SVSEIQLMHEF[dA]KHLNSMERVEWLRKKLQDVHNF-OH) | 19.4 mg | –
– | CC[C@H](C)[C@H](NC(=O)[C@H](CCC(=O)O)NC(=O)[C@H](CO)NC(=O)[C@@H](NC(=O)[C@@H](N)CO)C(C)C)C(=O)N[C@@H](CCC(N)=O)C(=O)N[C@@H](CC(C)C)C(=O)N[C@@H](CCSC)C(=O)N[C@@H](Cc1c[nH]cn1)C(=O)N[C@@H](CCC(=O)O)C(=O)N[C@@H](CC(C)C)C(=O)NCC(=O)N[C@@H](CCCCN)C(=O)N[C@@H](Cc1c[nH]cn1)C(=O)N[C@@H](CC(C)C)C(=O)N[C@@H](CO)C(=O)N[C@@H](CO)C(=O)N[C@@H](CCSC)C(=O)N[C@@H](CCC(=O)O)C(=O)N[C@@H](CCCNC(=N)N)C(=O)N[C@H](C(=O)N[C@@H](CCC(=O)O)C(=O)N[C@@H](Cc1c[nH]c2ccccc12)C(=O)N[C@@H](CC(C)C)C(=O)N[C@@H](CCCNC(=N)N)C(=O)N[C@@H](CCCCN)C(=O)N[C@@H](CCCCN)C(=O)N[C@@H](CC(C)C)C(=O)N[C@@H](CCC(N)=O)C(=O)N[C@@H](CC(=O)O)C(=O)N[C@H](C(=O)N[C@@H](Cc1c[nH]cn1)C(=O)N[C@@H](CC(N)=O)C(=O)N[C@@H](Cc1ccccc1)C(=O)O)C(C)C)C(C)C [(15), [Glu^10, Ser^16] hPTH(1-34)] (H-SVSEIQLMHELGKHLSSMERVEWLRKKLQDVHNF-OH) | 15.1 mg | –
– | CC[C@H](C)[C@H](NC(=O)[C@H](CCC(=O)O)NC(=O)[C@H](CO)NC(=O)[C@@H](NC(=O)[C@@H](N)CO)C(C)C)C(=O)N[C@@H](CCC(N)=O)C(=O)N[C@@H](CC(C)C)C(=O)N[C@@H](CCSC)C(=O)N[C@@H](Cc1c[nH]cn1)C(=O)N[C@@H](CCC(=O)O)C(=O)N[C@@H](Cc1ccccc1)C(=O)NCC(=O)N[C@@H](CCCCN)C(=O)N[C@@H](Cc1c[nH]cn1)C(=O)N[C@@H](CC(C)C)C(=O)N[C@@H](CCCCN)C(=O)N[C@@H](CO)C(=O)N[C@@H](CCSC)C(=O)N[C@@H](CCC(=O)O)C(=O)N[C@@H](CCCNC(=N)N)C(=O)N[C@H](C(=O)N[C@@H](CCC(=O)O)C(=O)N[C@@H](Cc1c[nH]c2ccccc12)C(=O)N[C@@H](CC(C)C)C(=O)N[C@@H](CCCNC(=N)N)C(=O)N[C@@H](CCCCN)C(=O)N[C@@H](CCC(N)=O)C(=O)N[C@@H](CC(C)C)C(=O)N[C@@H](CCC(N)=O)C(=O)N[C@@H](CC(=O)O)C(=O)N[C@H](C(=O)N[C@@H](Cc1c[nH]cn1)C(=O)N[C@@H](CC(N)=O)C(=O)N[C@@H](Cc1ccccc1)C(=O)O)C(C)C)C(C)C [(17), [Glu^10, Phe^11, Lys^16, Gln^27] hPTH(1-34)] (H-SVSEIQLMHEFGKHLKSMERVEWLRKQLQDVHNF-OH) | 12.4 mg | –
– | CC[C@H](C)[C@H](NC(=O)[C@H](CCC(=O)O)NC(=O)[C@H](CO)NC(=O)[C@@H](NC(=O)[C@@H](N)CO)C(C)C)C(=O)N[C@@H](CCC(N)=O)C(=O)N[C@@H](CC(C)C)C(=O)N[C@@H](CCSC)C(=O)N[C@@H](Cc1c[nH]cn1)C(=O)N[C@@H](CC(=O)O)C(=O)N[C@@H](Cc1ccccc1)C(=O)NCC(=O)N[C@@H](CCCCN)C(=O)N[C@@H](Cc1c[nH]cn1)C(=O)N[C@@H](CC(C)C)C(=O)N[C@@H](CCCCN)C(=O)N[C@@H](CCCCN)C(=O)N[C@@H](CCSC)C(=O)N[C@@H](CCC(=O)O)C(=O)N[C@@H](CCCNC(=N)N)C(=O)N[C@H](C(=O)N[C@@H](CCC(=O)O)C(=O)N[C@@H](Cc1c[nH]c2ccccc12)C(=O)N[C@@H](CC(C)C)C(=O)N[C@@H](CCCNC(=N)N)C(=O)N[C@@H](CCCCN)C(=O)N[C@@H](CCC(N)=O)C(=O)N[C@@H](CC(C)C)C(=O)N[C@@H](CCC(N)=O)C(=O)NC(C)(C)C(=O)N[C@H](C(=O)N[C@@H](Cc1c[nH]cn1)C(=O)N[C@@H](CC(N)=O)C(=O)N[C@@H](Cc1ccccc1)C(=O)O)C(C)C)C(C)C [(19), [Asp^10, Phe^11, Lys^16,17, Gln^2 7, Aib^30] hPTH(1-34)] (H-SVSEIQLMHDFGKHLKKMERVEWLRKQLQ[Aib]VHNF-OH) | 16.9 mg | –
– | CC[C@H](C)[C@H](NC(=O)[C@H](CCC(=O)O)NC(=O)[C@H](CO)NC(=O)[C@@H](NC(=O)[C@@H](N)CO)C(C)C)C(=O)N[C@@H](CCC(N)=O)C(=O)N[C@@H](CC(C)C)C(=O)N[C@@H](CCSC)C(=O)N[C@@H](Cc1c[nH]cn1)C(=O)N[C@@H](CCC(=O)O)C(=O)N[C@@H](CC(C)C)C(=O)NCC(=O)N[C@@H](CCCN)C(=O)N[C@@H](Cc1c[nH]cn1)C(=O)N[C@@H](CC(C)C)C(=O)N[C@@H](CC(N)=O)C(=O)N[C@@H](CO)C(=O)N[C@@H](CCSC)C(=O)N[C@@H](CCC(=O)O)C(=O)N[C@@H](CCCNC(=N)N)C(=O)N[C@H](C(=O)N[C@@H](CCC(=O)O)C(=O)N[C@@H](Cc1c[nH]c2ccccc12)C(=O)N[C@@H](CC(C)C)C(=O)N[C@@H](CCCNC(=N)N)C(=O)N[C@@H](CCCCN)C(=O)N[C@@H](CCCCN)C(=O)N[C@@H](CC(C)C)C(=O)N[C@@H](CCC(N)=O)C(=O)N[C@@H](CC(=O)O)C(=O)N[C@H](C(=O)N[C@@H](Cc1c[nH]cn1)C(=O)N[C@@H](CC(N)=O)C(=O)N[C@@H](Cc1ccccc1)C(=O)O)C(C)C)C(C)C [(22), [Glu^10, Orn^13] hPTH(1-34)] | 14.8 mg | –
0.6 pmol/well | SVSEIQLMHDLGKHLNSMERVEWLRKKLQDVHNF [[Asp^10 ] hPTH(1-34)] | – | –
1.81 pmol/well | SVSEIQLMHELGKHLNSMERVEWLRKKLQDVHNF [[Glu^10 ] hPTH(1-34)] | – | –
2.58 pmol/well | SVSEIQLMHDFGKHLNSMERVEWLRKKLQDVHNF [[Asp^10, Phe^11 ] hPTH(1-34)] | – | –
2.65 pmol/well | SVSEIQLMHD[2Nal]GKHLNSMERVEWLRKKLQDVHNF [[Asp^10, Ala(2-Naph)^11 ] hPTH(1-34)] | – | –
